Reference: article PMC10835127, “Viruses traverse the human proteome through peptide interfaces that can be biomimetically leveraged for drug discovery” (Proceedings of the National Academy of Sciences of the …, 2024)
Converted amounts (≈) assume the structure as drawn. Like-named read-outs stand apart in the source and are kept apart here. No end group written: not given here.

How the values were obtained:
[1] = test system: influenza A H1N1 virus; experiment: microbe, parasite or virus in culture; settings: H1N1, A549, read-out: Neuraminidase activity assay IC50
[2] = Plasma protein binding by equilibrium dialysis, murine; assay type: in vitro ADME; settings: mouse, read-out: PPB (% bound)
Description: The free and bound fractions of the tested compounds in mouse and human plasma were determined by equilibrium dialysis using a 96-well Teflon dialysis unit (HTDialysis plate complete unit, HT Dialysis, USA). The HTDialysis plate complete unit consists of a 96-well plate with wells vertically bisected by a semipermeable membrane (membranes strips 12 to 14 kDa) creating two chambers. A 125 μL aliquot of plasma containing tested compound at 10 μM was placed on one side and 125 μL of Dulbecco‘s phosphate buffered saline (D-PBS) on the other. The plate was incubated at 37 °C for 6 hr under gentle agitation. Then, samples from both plasma and buffer compartment were analyzed by a LC-MS/MS method to measure the free fraction and the bound fraction to the plasma proteins. […]

[3] = test system: Dengue virus; settings: in vitro; cited from earlier work
[4] = Cryopreserved hepatocyte stability, mouse; assay type: in vitro ADME; settings: cryopreserved hepatocytes, murine hepatocytes, read-out: CLint mHep
Description: (§1) Cryopreserved hepatocyte stability
(§2) Tested compounds (1 μM) were incubated with human cryopreserved hepatocytes (pool of 5) (IVT Celsis) and mouse cryopreserved hepatocytes (IVT Celsis). Hepatocytes (1, 0.5 or 0.25 x10^6 cells/mL, Williams’ Medium E (WME) with 4 mM L-glutamine and 2 mM magnesium sulphate) containing tested compound (final substrate concentration 1 μM; final DMSO concentration 0.25 %) were preincubated at 37 °C. The final incubation volume was 500 μl. 3 species-specific control compounds were included with each species. At 7 time points (0, 10, 20, 40, 60, 90, and 120 min), reactions were stopped by transferring 50 μl of the incubation mixture into 0.5 μM carbamazepine in cold acetonitrile. Tested compound concentrations were analyzed by LC-MS/MS and the resulting data were used to determine the half-life and intrinsic clearance of the compound in each species. […]

[5] = Microsomal stability, human liver microsomes; assay type: in vitro ADME; settings: both sexes, pH 7.4, read-out: CLint hLM
Description: (§3) Tested compounds (1 μM) were incubated with pooled human liver microsomes (Xenotech; pooled male and female) and pooled mouse liver microsomes (Xenotech; male CD-1 mice).
(§4) Microsomes (final protein concentrations of 0.25 and 0.5 mg/ml, 0.1 M phosphate buffer pH 7.4) containing tested compound (final substrate concentration 1 μM; final DMSO concentration 0.25 %) were preincubated at 37 °C prior to the addition of NADPH (final concentration 1 mM) to initiate the reaction. The final incubation volume was 200 μl. 3 species-specific control compounds were included with each species. At 5 time points (0, 5, 10, 20, and 40 min), reactions were stopped by transferring 50 μl of the incubation mixture into 0.5 μM carbamazepine in acetonitrile. Tested compound concentrations were analyzed by LC-MS/MS and the resulting data were used to determine the half-life and intrinsic clearance of the compound in each

[6] = Cryopreserved hepatocyte stability, human; assay type: in vitro ADME; settings: cryopreserved hepatocytes, read-out: CLint hHep
Description: as §1, §2

[7] = Microsomal stability, mouse liver microsomes; assay type: in vitro ADME; settings: male, CD-1, mouse, pH 7.4; murine liver microsomes; read-out: CLint mLM
Description: as §3, §4

[8] = Kinetic solubility; assay type: physicochemical; settings: PBS pH 7.4 buffer, pH 7.4, aqueous buffer, kinetic from dmso stock
Description: 10 mM DMSO Stock solutions of tested compounds were distributed into filtration plate (Multiscreen Durapore 0.45µm) containing PBS pH 7.4 buffer to a final maximum concentration of 130 μM (1.3 % DMSO/buffer). Solutions or suspensions were shaken for 30 min at room temperature. The samples were filtered under vacuum into a collection plate and diluted 50 % with ACN for UV analysis. Quantification was performed against a Reference plate containing the same tested compounds fully solubilized in ACN/PBS buffer 1:1. Reference and Sample plates were analyzed by UPLC/UV-MS using a generic UPLC method. […]

[9] = PK parameters in mice; assay type: in vivo, male Swiss (CD-1) mice; settings: male, Swiss (CD-1), plasma, mouse
Description: PK parameters and tissue distribution in mice
The pharmacokinetic profiles of the tested compounds were evaluated in male Swiss (CD-1) mice around 5-6 weeks old (3 animals per sampling time). […]
0.2 % Tween 80 in water. Blood samples were collected (0.25 mL) from the sinus retro-orbital […]
24 hr for p.o. route. The blood samples were immediately centrifuged at 2500 rpm at +4 °C, and the plasma was stored at −80 °C. 50 μL of plasma sample was taken and 150 μL of acetonitrile was added. After protein precipitation, analysis of the molecule was performed using LC-MS/MS to determine plasma compound concentration. For liver and lung collection, 3 animals per group were involved and sampled after 2 hr and 24 hr upon 20 mg/kg p.o. administration. Animals were perfused with around 10 mL of saline solution directly into the heart to extract the maximal blood sample from the liver and the lung. Animals were then sacrificed by cervical dislocation and liver

[10] = test system: HIV1 strain NL4-3; assay type: cell-based; settings: normalized mean of HIV1 replication readout
[11] = test system: HCV replicon; assay type: cell-based; settings: normalized mean of HCV replicon readout
[12] = test system: EBV; settings: normalized mean of EBV replication readout
[13] = molecular target: T1, MiNT (Homo sapiens, UniProt P0C7P0); experiment: In vitro NEET [2Fe-2S] cluster release, MiNT; assay type: biochemical; settings: recombinant MiNT, 37 °C, absorbance 460 nm
T1 construct: made in house; host or cells: E. coli
T1 sequence (P0C7P0 15-127): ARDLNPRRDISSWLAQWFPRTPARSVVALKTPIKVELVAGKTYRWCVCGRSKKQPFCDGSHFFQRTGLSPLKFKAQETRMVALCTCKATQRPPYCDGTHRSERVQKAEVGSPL
Description: (§5) MitoNEET ([60]) and NAF-1 ([61]) cytosolic domains and MiNT ([62]) were purified from E. coli as previously published. Experiments were performed in 96-well plates at 37 °C with […] of Fe-S cluster in a buffer composed of 50 mM Tris-HCl pH 7 and 100 mM NaCl. dEF3122 was dissolved in dimethyl sulfoxide (DMSO) at 10 mM. CPEP31 was dissolved in PBS at 10 mM. After 20 min of incubation of the protein with the molecule, NEET cluster release was followed by measuring the absorbance at 460 and 800 nm over time using a plate reader (SpectraMax ID3). The absorbance at 460 nm was corrected for the variation of the baseline (absorbance at 800 nm) over time and normalized at 1 at the beginning of the kinetics.

[14] = molecular target: T2, NAF-1 (Homo sapiens, UniProt Q8N5K1); experiment: In vitro NEET [2Fe-2S] cluster release, NAF-1; assay type: biochemical; settings: recombinant NAF-1, 37 °C, absorbance 460 nm
T2 construct: MitoNEET ([60]) and NAF-1 ([61]) cytosolic domains and MiNT ([62]) were purified from E. coli as previously published; made in house; host or cells: E. coli
T2 sequence (Q8N5K1 61-135 limits assumed): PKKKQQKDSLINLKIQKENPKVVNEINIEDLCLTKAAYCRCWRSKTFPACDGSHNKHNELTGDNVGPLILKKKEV
Description: as §5

[15] = not given; remark: listed apart in the source
[16] = test system: influenza A H1N1 virus; settings: 48 hr post-treatment, A549
[17] = test system: F. novicida (strain U112); assay type: cell-based; settings: normalized area under the curve
[18] = molecular target: T3, MitoNEET (Homo sapiens, UniProt Q9NZ45); experiment: In vitro NEET [2Fe-2S] cluster release, MitoNEET; assay type: biochemical; settings: recombinant MitoNEET, 37 °C, absorbance 460 nm
T3 construct: MitoNEET ([60]) and NAF-1 ([61]) cytosolic domains and MiNT ([62]) were purified from E. coli as previously published; made in house; host or cells: E. coli
T3 sequence (Q9NZ45 32-108 limits assumed): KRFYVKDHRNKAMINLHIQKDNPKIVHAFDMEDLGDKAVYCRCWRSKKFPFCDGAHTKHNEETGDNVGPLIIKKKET
Description: as §5

COc1ccc(C(=O)Nc2sc3c(c2C(=O)O)CCC(C)(C)C3)cc1OC [dEF2788]
IC50 [1]: 50 nM | fraction unbound at 6 h, 10 µM [2]: < 0.01 | activity against Dengue virus replication [3]: active in vitro against Dengue virus replication | hepatocyte CLint at 1 µM [4]: 116 µL/min/1e6 cells | microsomal CLint at 1 µM [5]: < 14 µL/min/mg | hepatocyte CLint at 1 µM [6]: 31 µL/min/1e6 cells | microsomal CLint at 1 µM [7]: 14 µL/min/mg | solubility kinetic at 30 min [8]: 104 µM (≈ 40.5 µg/mL) | half-life ([9]; iv 0.5 mg/kg, read-out: T1/2 iv (converted)): 48 min | Cmax ([9]; po 5 mg/kg (dose for AUC)): 71 ng/mL | bioavailability ([9]; po 5 mg/kg, iv 0.5 mg/kg): 26%

EVVLFLLNVF [CPEP31]
CC50: > 100000 nM | HIV1 Norm MEAN [10]: 8.9 | HCV Norm MEAN [11]: 0.4448 | EBV Norm MEAN [12]: 0.8028 | interaction by [2Fe-2S] cluster release assay [13]: Interactions were validated | interaction by [2Fe-2S] cluster release assay [14]: Interactions were validated | selectivity ratio [15]: > 12 | Neuraminidase activity normalized to vehicle ([16]; 200 µM peptide): 0,0494 | Neuraminidase activity normalized to vehicle ([16]; 0,823 µM peptide): 0,7352 | Neuraminidase activity normalized to vehicle ([16]; 22,2 µM peptide): 0,2851 | Neuraminidase activity normalized to vehicle ([16]; 2,4691 µM peptide): 0,951 | Neuraminidase activity normalized to vehicle ([16]; 7,4074 µM peptide): 0,7335 | Neuraminidase activity normalized to vehicle ([16]; 66,6667 µM peptide): 0,114 | Francisella novicida Norm AUC [17]: 0.6912 | interaction by [2Fe-2S] cluster release assay [18]: Interactions were validated
